In ChEMBL document CHEMBL1158772, “Benzophenones from Hypericum carinatum” (J Nat Prod, 2005):
The source made the active and inactive calls. The calls are words filed in the database; no cut-off is given here.

Key:
Assay type in all cases: functional
[1] = Antioxidant activity assessed as ABAP free radical scavenging measured at 1.6 mM by TRAP assay
[2] = Antioxidant activity assessed as ABAP free radical scavenging measured at 3.2 mM by TRAP assay
[3] = Antioxidant activity assessed as ABAP free radical scavenging measured by TRAP assay

Row | Structure (SMILES) | Activity [1] | Activity [2] | Activity [3]
1 | Cc1c(O)c(C(=O)c2ccccc2)c(O)c2c1OC(C)(C)C=C2 | Active | Active | –
2 | Cc1c(O)c2c(c(C(=O)c3ccccc3)c1O)OC(C)(C)C=C2 | – | – | inactive
3 | O=c1c(O)c(-c2ccc(O)c(O)c2)oc2cc(O)cc(O)c12 | – | Active | –
4 | CC(C)C(=O)C1=C(O)C(Cc2c(O)c3c(c(C(=O)C(C)C)c2O)OC(C)(C)C=C3)=C(O)C(C)(C)C1=O | – | – | inactive
